Experimental data reported in patent publication US10696703B2, “Method for producing eushearlilides” (TOKYO UNIVERSITY OF SCIENCE FOUNDATION, priority 2014, dated 2020).

Columns and labels:
Type in all cases: cell-based
[1] = test system: Staphylococcus aureus NBRC 12732; test: MIC measurement by CLSI disk method, Staphylococcus aureus NBRC 12732; details: for Inhibition zone: at the MIC amount per disk, mean of longest and shortest lengths of area without growth; for MIC concentration: disk method, Mueller-Hinton II agar, 36 ± 1° C., 18 to 24 hours
Protocol: (§1) The followings were used as test microorganisms: Staphylococcus aureus NBRC 12732, Aspergillus niger NBRC 105649, and Trichophyton mentagrophytes NBRC 5466. Measurements were performed in accordance with the disk method as defined by CLSI (Clinical and Laboratory Standards Institute). A cryopreserved strain was applied onto a test-bacterium preculture medium, and precultured under predetermined conditions. A grown colony was suspended in a test-bacterium culture medium, and cultured under predetermined conditions, and then added to a test-bacterium preparation liquid to adjust the number of cells to about 107-8 CFU/mL. Further, the prepared test-bacterium liquid was subjected to 10-times serial dilution, and cultured under predetermined conditions, and the number of cells was then counted. [table] Each compound was dissolved in methanol to 1,000 μg/mL, which was used as a sample stock solution. Otsuka distilled water in an amount of 0.75 mL was added to 0.75 mL of the sample stock solution to give a volume of 500 μg/mL. This two-fold dilution was repeated in a similar way. A total of 10 test-substance dilution series was prepared so that the concentrations of the test substance were each 1000, 500, 250, 125, 63, 31, 16, 8, 4, and 2 μg/mL. A test-bacterium liquid was uniformly spread over a corresponding sensitivity measurement agar medium in a square petri dish using a swab, and disks were placed on the medium. At this time, the distance between disks was set to 24 mm or more. A test-substance diluted liquid in an amount of 50 μL was dropped on a disk. The amount of a test substance per disk was 50, 25, 12.5, 6.3, 3.1, 1.6, 0.8, 0.4, 0.2, or 0.1 μg. Each sensitivity measurement agar medium was cultured under conditions shown in Table 1 above, and the diameter of an inhibition zone where bacterial growth was not observed was measured in mm with calipers. As control, methanol was dropped on a disk instead of a test substance.

[2] = test system: Aspergillus niger NBRC 105649; test: MIC measurement by CLSI disk method, Aspergillus niger NBRC 105649; details: for Inhibition zone: at the MIC amount per disk, mean of longest and shortest lengths of area without growth; for MIC concentration: disk method, Glucose Peptone agar, 27 ± 1° C., one week
Protocol: as §1

[3] = test system: Trichophyton mentagrophytes NBRC 5466; test: MIC measurement by CLSI disk method, Trichophyton mentagrophytes NBRC 5466; details: for Inhibition zone: at the MIC amount per disk of the same line, mean of longest and shortest lengths of area without growth; for MIC concentration: disk method, Glucose Peptone agar, 27 ± 1° C., one week
Protocol: as §1

[4] = test system: Staphylococcus aureus (MRSA) IID1677; test: MIC measurement by CLSI disk method, MRSA IID 1677; details: for Inhibition zone: at the MIC amount per disk, mean of longest and shortest lengths of area without growth; for MIC: disk method, bacterial liquid 7.3 × 10^7 CFU/mL, Mueller-Hinton II agar, 35 ± 1° C., 24 h
Protocol: (§2) The followings were used as test microorganisms: Staphylococcus aureus (MRSA) IID 1677, Staphylococcus aureus (MRSA) ATCC 43300, Enterococcus faecalis (VRE) ATCC 51575, and Enterococcus faecalis ATCC 29212.
(§3) Measurements were performed in accordance with the disk method as defined by CLSI (Clinical and Laboratory Standards Institute).
(§4) A cryopreserved strain was applied onto a test-bacterium culture medium, and precultured under predetermined conditions (Table 3). A grown colony was again precultured (Table 3), and then suspended in a test-bacterium preparation liquid, and filtered through absorbent cotton. The number of cells was then adjusted to about 107-8 CFU/mL. This was used for the tests. Further, the prepared test-bacterium liquid was subjected to 10-times serial dilution, and cultured under predetermined conditions (Table 4), and the number of cells was then counted.
(§5) Each of the compounds according to the present invention was dissolved in methanol (Wako Pure Chemical Industries, Ltd., Special grade, Content: 99.8%) to 1000 µg/mL. This was used as a sample stock solution. Otsuka distilled water in an amount of 0.8 mL was added to 0.8 mL of the sample stock solution such that the concentration of each of the compounds according to the present invention was 500 μg/mL. This two-fold dilution was repeated in a similar way. A total of 10 test-substance dilution series were prepared so that the concentrations of the test substance were each 1000, 500, 250, 125, 63, 31, 16, 8, 4, and 2 μg/mL.
(§6) A test-bacterium liquid was uniformly spread over a sensitivity measurement agar medium in a square petri dish (230×80×14.5 mm, Eiken Chemical Co., Ltd.) using a swab, and φ8-mm thick disks (for antibiotics assay, Advantec Co., Ltd.) were placed on the medium. At this time, the distance between disks was set to 24 mm or more. A test-substance diluted liquid in an amount of 50 μL was dropped on a disk. The amount of a test substance per disk was 50, 25, 12.5, 6.3, 3.1, 1.6, 0.8, 0.4, 0.2, or 0.1 μg. A sensitivity measurement agar medium was cultured under predetermined conditions (Table 4), and the width of an inhibition zone where bacterial growth was not observed was measured in mm with calipers. As control, methanol was dropped on a disk instead of a test substance.

[5] = test system: Staphylococcus aureus (MRSA) ATCC43300; test: MIC measurement by CLSI disk method, MRSA ATCC 43300; details: for Inhibition zone: at the MIC amount per disk, mean of longest and shortest lengths of area without growth; for MIC: disk method, bacterial liquid 1.0 × 10^8 CFU/mL, Mueller-Hinton II agar, 35 ± 1° C., 24 h
Protocol: as §2, §3, §4, §5, §6

[6] = test system: Enterococcus faecalis (VRE) ATCC51575; test: MIC measurement by CLSI disk method, VRE ATCC 51575; details: for Inhibition zone: at the MIC amount per disk, mean of longest and shortest lengths of area without growth; for MIC: disk method, bacterial liquid 1.9 × 10^8 CFU/mL, Mueller-Hinton II agar, 35 ± 1° C., 24 h
Protocol: as §2, §3, §4, §5, §6

[7] = test system: Enterococcus faecalis ATCC29212; test: MIC measurement by CLSI disk method, Enterococcus faecalis ATCC 29212; details: for Inhibition zone: at the MIC amount per disk of the same line, mean of longest and shortest lengths of area without growth; for MIC: disk method, bacterial liquid 9.6 × 10^7 CFU/mL, Mueller-Hinton II agar, 35 ± 1° C., 24 h
Protocol: as §2, §3, §4, §5, §6

Structure (SMILES) | Inhibition zone [1] [mm] | MIC concentration [1] [μg/disk] | Inhibition zone [2] [mm] | MIC concentration [2] [μg/disk] | Inhibition zone [3] [mm] | MIC concentration [3] [μg/disk] | Inhibition zone [4] [mm] | MIC [4] [μg/disk] | Inhibition zone [5] [mm] | MIC [5] [μg/disk] | Inhibition zone [6] [mm] | MIC [6] [μg/disk] | Inhibition zone [7] [mm] | MIC [7] [μg/disk]
C[C@@H]1C/C=C/CC/C=C/CCCCCCCCCCCC[C@@H](OP(=O)([O-])OCC[N+](C)(C)C)CC(=O)O1 [Compound A] | 2 | 50 | 3.7 | 50 | 2.5 | 25 | – | – | – | – | – | – | – | –
C[C@@H]1C/C=C/CC/C=C\CCCCCCCCCCCC[C@@H](OP(=O)([O-])OCC[N+](C)(C)C)CC(=O)O1 [Compound B] | 2.2 | 50 | 3.7 | 50 | 3.9 | 12.5 | – | – | – | – | – | – | – | –
C[C@@H]1C/C=C/CC/C=C\CCCCCCCCCCCC[C@H](OP(=O)([O-])OCC[N+](C)(C)C)CC(=O)O1 [Compound C] | 1.5 | 50 | 1 | 50 | 5.1 | 12.5 | – | – | – | – | – | – | – | –
C[C@H]1C/C=C/CC/C=C/CCCCCCCCCCCC[C@H](OP(=O)([O-])OCC[N+](C)(C)C)CC(=O)O1 [Compound D, (3S,16E,20E,23S)-(+)-Eushearilide] | – | – | – | – | – | – | 1.4 | 50 | 3.0 | 50 | 4.7 | 50 | 2.2 | 25
C[C@@H]1C/C=C/CC/C=C/CCCCCCCCCCCC[C@H](OP(=O)([O-])OCC[N+](C)(C)C)CC(=O)O1 [Compound E, (3S,16E,20E,23R)-(+)-Eushearilide] | – | – | – | – | – | – | 2.2 | 50 | 3.3 | 50 | 6.9 | 50 | 0.0 | >50
C[C@H]1C/C=C/CC/C=C/CCCCCCCCCCCC[C@@H](OP(=O)([O-])OCC[N+](C)(C)C)CC(=O)O1 [Compound F, (3R,16E,20E,23S)-(−)-Eushearilide] | – | – | – | – | – | – | 3.1 | 50 | 2.4 | 50 | 5.8 | 50 | 7.7 | 50
C[C@H]1C/C=C/CC/C=C\CCCCCCCCCCCC[C@H](OP(=O)([O-])OCC[N+](C)(C)C)CC(=O)O1 [Compound G, (3S,16Z,20E,23S)-(+)-Eushearilide] | – | – | – | – | – | – | 2.3 | 50 | 0.9 | 50 | 6.7 | 50 | 8.4 | 50
C[C@H]1C/C=C/CC/C=C\CCCCCCCCCCCC[C@@H](OP(=O)([O-])OCC[N+](C)(C)C)CC(=O)O1 [Compound H, (3R,16Z,20E,23S)-(−)-Eushearilide] | – | – | – | – | – | – | 3.0 | 50 | 2.7 | 50 | 5.5 | 50 | 3.3 | 50
